# Literature values, collected in US20180168955A1, “IODINE-CONTAINING ORAL CARE COMPOSITIONS” (priority 2016, published 2018).
structure (smiles),measurement,setting,value
II [iodine],volume of alcohol in which one gram of iodine dissolves,solvent alcohol,12.5 mL
same,volume of water in which one gram of iodine dissolves,solvent water,2950 mL
